According to patent publication US20150098963A1, “METHODS AND COMPOSITIONS FOR IMPROVING THE APPEARANCE OF SKIN” (priority 2013, published 2015):
Ends that are not written are not given here.

Test system: SIRT6
Assay: SIRT6 expression by immunohistochemistry in Normal Human Epidermal Keratinocytes
Assay type: cell-based
Settings: 1% and 3% of a 50 ppm peptide solution, 48 h treatment, FIG. 2
Experimental: SIRT6 is a member of the conserved family of sirtuin proteins which are associated with metabolism and longevity. SIRT6 is a histone 3, lysine 9 (H3K9) deacetylase and is primarily involved in DNA repair and telomere stability. The peptide of (SEQ ID No. 5) Gly-Ala-Gly-Val-Ser-Ala-Glu-NH2 was tested for Sirt6 stimulating activity as follows.
• Normal Human Epidermal Keratinocytes p3 • EpiLife Medium (Invitrogen) • Human Keratinocyte Growth Supplement (Invitrogen) • 1× Dulbecco's Phosphate Buffered Saline (DPBS) made from: • 10× DPBS (Mediatech) • Distilled, Deionized Water • Peptide of SEQ ID No. 5 • Rabbit polyclonal antibody to Sirt6 (Abcam) • Alexa Fluor 488 donkey anti-rabbit IgG (H+L) (Invitrogen) • Triton-X 100 (Fisher) • Albumin, Bovine (Sigma) • Vectashield with 4′,6-diamidino-2-phenylindole (DAPI) (Vector)
• 1. Cells were plated into 4 well chamber slides @ 10,000 cells/chamber and incubated at 37° C., 5% CO2 & 95% humidity for 24 hours. • 2. The peptide of SEQ ID No. 5 was prepared as follows: • 2.1. Dissolved 5 mg peptide in 5 ml medium to make a 1000 ppm stock solution. • 2.2. Diluted the stock solution to 50 ppm by combining 400 μl 1000 ppm stock solution with 7.6 ml medium • 2.3. Prepared a 3% of the 50 ppm solution by combining 1.5 ml 50 ppm stock with 48.5 ml medium • 2.4. Prepared a 1% of the 50 ppm solution by combining 0.5 ml 50 ppm stock with […] medium • 3. […]

## Gly-Ala-Gly-Val-Ser-Ala-Glu-NH2 (GAGVSAE-NH2) [SEQ ID No. 5]
  SIRT6 expression: dose dependent increase in SIRT6 expression
